Reference: the NIST ThermoML archive (doi:10.1021/je060271a)

Conditions: 323.14 K, Liquid, Vibrating tube method

CCCCCCC(=O)OCC(COC(=O)CCCCCC)(COC(=O)CCCCCC)COC(=O)CCCCCC [pentaerythritol tetraheptanoate]
Conditions | mass density [kg/m3]
5217.4 kPa | 959.1
5240.4 kPa | 959.1
5260.4 kPa | 959.1
5280.7 kPa | 959.4
5304 kPa | 959.2
5323.4 kPa | 959.2
5347.3 kPa | 959.4
5367.7 kPa | 959.3
5388.5 kPa | 959.3
5408.9 kPa | 959.3
5429.5 kPa | 959.2
5454.7 kPa | 959.2
5475.8 kPa | 959.3
5497.3 kPa | 959.3
5522.7 kPa | 959.4
5543.9 kPa | 959.5
5565.6 kPa | 959.4
5591.3 kPa | 959.3
5613.3 kPa | 959.5
5635.4 kPa | 959.4
5662.4 kPa | 959.4
5684.7 kPa | 959.6
5707.9 kPa | 959.4
5735.2 kPa | 959.5
5758 kPa | 959.5
5781.4 kPa | 959.5
5804.9 kPa | 959.7
5833.6 kPa | 959.6
5857.5 kPa | 959.6
5886 kPa | 959.5
5910.2 kPa | 959.7
5935.4 kPa | 959.7
5964.8 kPa | 959.7
5989.9 kPa | 959.7
6015.7 kPa | 959.6
6041.2 kPa | 959.8
6072.5 kPa | 959.7
6099.5 kPa | 959.8
6127 kPa | 959.7
6154.7 kPa | 959.8
6180.8 kPa | 959.8
6202.1 kPa | 959.8
6224.2 kPa | 959.8
6246.2 kPa | 959.9
6272.6 kPa | 959.8
6294.4 kPa | 960
6316.9 kPa | 959.8
6344 kPa | 959.8
6366.6 kPa | 959.9
6393.8 kPa | 960
6417.3 kPa | 960
6441.6 kPa | 959.9
6466 kPa | 960
6489.5 kPa | 960.2
6513.7 kPa | 960
6542.9 kPa | 960
6566.4 kPa | 960
6595.3 kPa | 960.1
6619.5 kPa | 960.1
6644.3 kPa | 960
6674.1 kPa | 960.1
6699.1 kPa | 960.1
6724.7 kPa | 960.1
6755.6 kPa | 960.2
6782.2 kPa | 960.3
6809 kPa | 960.2
6835.2 kPa | 960.2
6861.8 kPa | 960.1
6893.8 kPa | 960.2
6920.9 kPa | 960.2
6948.7 kPa | 960.3
6976.5 kPa | 960.3
7009.5 kPa | 960.4
7037.3 kPa | 960.3
7072 kPa | 960.4
7101 kPa | 960.5
7131.4 kPa | 960.4
7161.8 kPa | 960.4
7190 kPa | 960.5
7218.1 kPa | 960.4
7240 kPa | 960.6
7262.7 kPa | 960.5
7289.6 kPa | 960.7
7312 kPa | 960.5
7334.9 kPa | 960.6
7357.8 kPa | 960.5
7385.4 kPa | 960.6
7408.7 kPa | 960.6
7433.1 kPa | 960.6
7457.4 kPa | 960.6
7486.4 kPa | 960.7
7510.8 kPa | 960.7
7534.2 kPa | 960.6
7558.2 kPa | 960.7
7587.6 kPa | 960.7
7611.9 kPa | 960.8
7637.3 kPa | 960.8
7666.8 kPa | 960.8
7692.5 kPa | 960.7
7717.9 kPa | 960.9
7743.3 kPa | 960.9
7773.8 kPa | 960.8
7799.7 kPa | 960.7
7826.1 kPa | 960.9
7857.2 kPa | 961
7883.6 kPa | 960.9
7910 kPa | 961
7941.6 kPa | 961
7968.3 kPa | 961
7995.6 kPa | 961
8028.4 kPa | 961
8056 kPa | 961.1
